In PMC7272100 (PLoS ONE, 2020):

Key:
[1] = Stability of peptides in cells (inferred from WST-1 assay); conditions: deduced from WST-1 results after 48 hours of incubation
[2] = test system: C-terminal domain (residues, 293–393); conditions: monomeric fragment versus tetrameric form; ref [50]; cited from earlier work
Excerpt: (§1) With a helix–loop–helix pattern, these proteins are site-specific and form homo and heterodimers. These proteins interact with copper, zinc, and calcium ions, and calcium-binding facilitates a variety of extracellular and intracellular governing consequences of these proteins. […] Further, it was also found to connect with the p53 tetrameriza ...

[3] = test system: MDM2 N- terminal domain (2–125); conditions: ref [52]; cited from earlier work
Excerpt: as §1

[4] = test system: p53 peptide (residues, 367–393); conditions: ref [49]; cited from earlier work
Excerpt: as §1

[5] = test system: p53 tetramerization domain (residues, 325–355); conditions: ref [49]; cited from earlier work
Excerpt: as §1

[6] = test system: p53 transactivation domain (residues, 1–57); conditions: fluorescence anisotropy; ref [50]; cited from earlier work
Excerpt: as §1

[7] = test system: phosphorylated p53 N-terminus; conditions: single-site phosphorylation, fluorescence anisotropy; ref [51]; cited from earlier work
Excerpt: as §1

[8] = HIV-TAT alone; ref [79]; cited from earlier work
Excerpt: [79] […] The (LLKK)3 imparts an amphiphilic α-helical conformation to the peptide that disrupts the cellular membranes. […] [81] Altogether it can be inferred that the TAT sequence has a very minimal effect to the confirmation of the conjugated partner under consideratio ...

[9] = test system: various cell lines including MCF-7; parameters: method as in PMID 19914216; conditions: ref [85], cited from earlier work
HeLa cells = conditions: N-terminal fluorescein tagged, even after five hours; ref [86]; cited from earlier work
Excerpt: [86] […] [85] […] [ ...

[10] = ref [77]; cited from earlier work
Excerpt: We selected residues from 76 to 92 (17 residues) for our peptide construction.

MDM2-p53 complex = assay: HSQC-NMR competitive binding experiment; parameters: species or system human; conditions: unlabeled p53 added to 15N-labeled MDM2, 1:1, pH 7.2
Description: HSQC- NMR competitive binding experiment
All the experiments were carried out in the NMR buffer containing 20 mM Tris-HCl, 15 mM NaCl, 20 mM CaCl2, 20 mM DTT, 0.1% NaN3, and 10% D2O; pH 7.2.

MDM2 (17–125) = conditions: p53 (1–73), besides helix region (18–26); ref [70]; cited from earlier work
[11] = molecular target: T1, p53-TAD (residues 1-73), N-terminal domain of p53 (UniProt P04637 1-73); assay: other fluorescence titration; tryptophan fluorescence of p53 (1-73), excitation 295 nm; Peptide 1 0 to 12.0 uM added to 2 uM p53; 20 mM Tris-HCl, 15 mM NaCl, 20 mM CaCl2, 20 mM DTT, 0.1% NaN3, pH 7.2; conditions: both partners purified
T1 construct: cleaved protein of 8.6 kDa; plasmid a gift of G. Daughdrill; Used unlabelled or 15N-labelled; also called p53 (1-73); p53 N-terminal domain; source: bacterial cells in M9 media, purified (Ni-NTA, thrombin digestion, Superdex 75)
T1 sequence (P04637 1-73): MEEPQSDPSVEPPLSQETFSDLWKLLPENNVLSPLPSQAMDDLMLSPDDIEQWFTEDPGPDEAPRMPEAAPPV

Molecule: CC(C)C[C@H](NC(=O)[C@H](C)NC(=O)[C@H](C)NC(=O)[C@@H](NC(=O)[C@H](CC(C)C)NC(=O)[C@@H](NC(=O)[C@@H](NC(=O)[C@H](CCCNC(=N)N)NC(=O)[C@H](CCCNC(=N)N)NC(=O)[C@H](CCCNC(=N)N)NC(=O)[C@H](CCC(N)=O)NC(=O)[C@H](CCCNC(=N)N)NC(=O)[C@H](CCCNC(=N)N)NC(=O)[C@H](CCCCN)NC(=O)[C@H](CCCCN)NC(=O)[C@H](CCCNC(=N)N)NC(=O)CNC(=O)[C@@H](N)Cc1ccc(O)cc1)C(C)C)C(C)C)C(C)C)C(=O)N[C@H](C(=O)N[C@H](C(=O)N[C@@H](C)C(=O)N[C@@H](CS)C(=O)N[C@@H](CC(N)=O)C(=O)N[C@@H](CC(N)=O)C(=O)N[C@@H](Cc1ccccc1)C(=O)N[C@@H](Cc1ccccc1)C(=O)N[C@@H](Cc1c[nH]c2ccccc12)C(=O)N[C@@H](CCC(=O)O)C(=O)O)C(C)C)[C@@H](C)O [Peptide 1]
- stability in cells [1]: quite stable

Molecule: S100A1: human S100A1 protein produced in BL21 (DE3) E. coli [Peptide S100A1]
- binding to p53 C-terminal domain (293–393) [2]: could bind to the monomeric fragment of the C-terminal domain (residues, 293–393) but unable to form a complex with the tetrameric form
- association with MDM2 N-terminal domain (2–125) [3]: found to associate with the MDM2 N- terminal domain (2–125) and does not lead to the formation of a ternary complex with MDM2 and p53
- association with p53 peptide (367–393) [4]: found to associate with the p53 peptide (residues, 367–393)
- interaction with p53 TET domain (325–355) [5]: only interacted with the TET domain when its oligomerization state was lowered (monomers or dimers)
- binding to p53 transactivation domain (1–57) [6]: binding of S100A1 to the p53 transactivation domain (residues, 1–57)
- affinity of phosphorylated p53 N-terminus for S100A1 [7]: increased affinity for S100A1

Molecule: YGRKKRRQRRR [TAT peptide]
- conformation by CD spectrum [8]: unstructured form
- cytotoxicity of TAT peptide, above 5 μM ([9]; above 5 μM): 11–22%
- cytotoxicity of TAT peptide, up to 5 μM ([9]; up to 5 μM): non-toxic
- stability of TAT peptide (cytoplasmic fluorescence) (HeLa cells): quite stable
- delivery of heterologous proteins [10]: cytoplasmic delivery of heterologous proteins which was independent of the cell type

Molecule: p53 (1–73): p53-TAD (residues, 1–73)
- effect on 15N labeled MDM2 HSQC peaks (MDM2-p53 complex): several ^15N labeled MDM2 peaks were shifted and/or disappeared
- p53 regions able to bind to MDM2 (MDM2 (17–125)): nascent turns 1 (40–45) and 2 (49–54) are furthermore able to bind to MDM2

B1: Peptide 1 (HIV-TAT + S100A1 derived peptide) (peptide)
peptide: YGRKKRRQRRRVVLVAALTVACNNFFWE
notes: HIV-TAT cell-penetrating segment derived from the TAT protein of human immunodeficiency virus; S100A1, human, C-terminal residues 76 to 92 (17 residues); 28 residues; the TAT segment stands N-terminal of the S100A1 stretch; also called fusion peptide; source: synthetic peptide, bought: Kelowna International Scientific Inc., >= 95% purity
- Kd [11]: ~590 nM
